Source: article doi:10.1101/2021.02.21.432137v1 (biorxiv, 2021)

What was measured:
Settings in all cases: binder
[1] = molecular target: CSNK2A1 (Homo sapiens, UniProt P68400)
[2] = molecular target: LRRK2 (Homo sapiens, UniProt Q5S007)
[3] = molecular target: BMPR1B (Homo sapiens, UniProt O00238)
[4] = molecular target: TYK2 (Homo sapiens, UniProt P29597)
[5] = molecular target: T1, MAP3K15 (Homo sapiens, UniProt Q6ZN16)
T1 sequence (Q6ZN16 1-1313): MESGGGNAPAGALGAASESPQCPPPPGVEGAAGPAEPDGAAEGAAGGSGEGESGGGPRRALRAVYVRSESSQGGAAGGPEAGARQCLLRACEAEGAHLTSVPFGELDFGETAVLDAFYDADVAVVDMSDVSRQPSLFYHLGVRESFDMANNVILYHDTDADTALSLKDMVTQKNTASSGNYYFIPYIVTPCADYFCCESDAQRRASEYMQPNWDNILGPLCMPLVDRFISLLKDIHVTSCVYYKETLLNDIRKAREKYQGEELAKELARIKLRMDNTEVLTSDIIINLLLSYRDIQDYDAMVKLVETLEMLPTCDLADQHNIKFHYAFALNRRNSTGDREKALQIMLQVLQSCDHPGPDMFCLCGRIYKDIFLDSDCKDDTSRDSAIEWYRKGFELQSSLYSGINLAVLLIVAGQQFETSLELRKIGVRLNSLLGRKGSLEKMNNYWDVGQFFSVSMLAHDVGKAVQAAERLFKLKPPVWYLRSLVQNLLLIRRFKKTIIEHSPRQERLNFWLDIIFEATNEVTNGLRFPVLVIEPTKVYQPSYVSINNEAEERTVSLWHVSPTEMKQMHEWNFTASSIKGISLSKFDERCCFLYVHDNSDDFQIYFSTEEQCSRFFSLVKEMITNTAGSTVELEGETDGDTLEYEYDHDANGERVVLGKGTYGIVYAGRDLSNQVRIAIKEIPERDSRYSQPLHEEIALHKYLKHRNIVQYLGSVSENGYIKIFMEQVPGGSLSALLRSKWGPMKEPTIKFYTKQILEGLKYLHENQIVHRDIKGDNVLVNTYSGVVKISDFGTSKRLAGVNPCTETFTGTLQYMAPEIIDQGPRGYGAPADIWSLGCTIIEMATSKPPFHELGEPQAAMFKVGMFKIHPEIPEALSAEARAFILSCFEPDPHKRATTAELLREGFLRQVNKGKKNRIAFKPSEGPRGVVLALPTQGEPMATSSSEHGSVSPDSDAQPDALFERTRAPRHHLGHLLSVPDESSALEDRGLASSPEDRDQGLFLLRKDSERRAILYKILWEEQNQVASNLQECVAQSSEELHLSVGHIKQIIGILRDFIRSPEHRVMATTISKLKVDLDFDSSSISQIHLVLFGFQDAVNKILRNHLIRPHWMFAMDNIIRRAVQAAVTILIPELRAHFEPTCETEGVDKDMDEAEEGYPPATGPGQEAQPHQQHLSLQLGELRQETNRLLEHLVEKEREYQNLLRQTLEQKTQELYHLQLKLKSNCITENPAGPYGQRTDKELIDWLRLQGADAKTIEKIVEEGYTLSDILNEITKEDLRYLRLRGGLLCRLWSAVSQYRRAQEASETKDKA

[6] = molecular target: LRRK2 (G2019S) (Homo sapiens, UniProt Q5S007, G2019S)
Sequence of LRRK2 (G2019S) (Q5S007 whole entry G2019S): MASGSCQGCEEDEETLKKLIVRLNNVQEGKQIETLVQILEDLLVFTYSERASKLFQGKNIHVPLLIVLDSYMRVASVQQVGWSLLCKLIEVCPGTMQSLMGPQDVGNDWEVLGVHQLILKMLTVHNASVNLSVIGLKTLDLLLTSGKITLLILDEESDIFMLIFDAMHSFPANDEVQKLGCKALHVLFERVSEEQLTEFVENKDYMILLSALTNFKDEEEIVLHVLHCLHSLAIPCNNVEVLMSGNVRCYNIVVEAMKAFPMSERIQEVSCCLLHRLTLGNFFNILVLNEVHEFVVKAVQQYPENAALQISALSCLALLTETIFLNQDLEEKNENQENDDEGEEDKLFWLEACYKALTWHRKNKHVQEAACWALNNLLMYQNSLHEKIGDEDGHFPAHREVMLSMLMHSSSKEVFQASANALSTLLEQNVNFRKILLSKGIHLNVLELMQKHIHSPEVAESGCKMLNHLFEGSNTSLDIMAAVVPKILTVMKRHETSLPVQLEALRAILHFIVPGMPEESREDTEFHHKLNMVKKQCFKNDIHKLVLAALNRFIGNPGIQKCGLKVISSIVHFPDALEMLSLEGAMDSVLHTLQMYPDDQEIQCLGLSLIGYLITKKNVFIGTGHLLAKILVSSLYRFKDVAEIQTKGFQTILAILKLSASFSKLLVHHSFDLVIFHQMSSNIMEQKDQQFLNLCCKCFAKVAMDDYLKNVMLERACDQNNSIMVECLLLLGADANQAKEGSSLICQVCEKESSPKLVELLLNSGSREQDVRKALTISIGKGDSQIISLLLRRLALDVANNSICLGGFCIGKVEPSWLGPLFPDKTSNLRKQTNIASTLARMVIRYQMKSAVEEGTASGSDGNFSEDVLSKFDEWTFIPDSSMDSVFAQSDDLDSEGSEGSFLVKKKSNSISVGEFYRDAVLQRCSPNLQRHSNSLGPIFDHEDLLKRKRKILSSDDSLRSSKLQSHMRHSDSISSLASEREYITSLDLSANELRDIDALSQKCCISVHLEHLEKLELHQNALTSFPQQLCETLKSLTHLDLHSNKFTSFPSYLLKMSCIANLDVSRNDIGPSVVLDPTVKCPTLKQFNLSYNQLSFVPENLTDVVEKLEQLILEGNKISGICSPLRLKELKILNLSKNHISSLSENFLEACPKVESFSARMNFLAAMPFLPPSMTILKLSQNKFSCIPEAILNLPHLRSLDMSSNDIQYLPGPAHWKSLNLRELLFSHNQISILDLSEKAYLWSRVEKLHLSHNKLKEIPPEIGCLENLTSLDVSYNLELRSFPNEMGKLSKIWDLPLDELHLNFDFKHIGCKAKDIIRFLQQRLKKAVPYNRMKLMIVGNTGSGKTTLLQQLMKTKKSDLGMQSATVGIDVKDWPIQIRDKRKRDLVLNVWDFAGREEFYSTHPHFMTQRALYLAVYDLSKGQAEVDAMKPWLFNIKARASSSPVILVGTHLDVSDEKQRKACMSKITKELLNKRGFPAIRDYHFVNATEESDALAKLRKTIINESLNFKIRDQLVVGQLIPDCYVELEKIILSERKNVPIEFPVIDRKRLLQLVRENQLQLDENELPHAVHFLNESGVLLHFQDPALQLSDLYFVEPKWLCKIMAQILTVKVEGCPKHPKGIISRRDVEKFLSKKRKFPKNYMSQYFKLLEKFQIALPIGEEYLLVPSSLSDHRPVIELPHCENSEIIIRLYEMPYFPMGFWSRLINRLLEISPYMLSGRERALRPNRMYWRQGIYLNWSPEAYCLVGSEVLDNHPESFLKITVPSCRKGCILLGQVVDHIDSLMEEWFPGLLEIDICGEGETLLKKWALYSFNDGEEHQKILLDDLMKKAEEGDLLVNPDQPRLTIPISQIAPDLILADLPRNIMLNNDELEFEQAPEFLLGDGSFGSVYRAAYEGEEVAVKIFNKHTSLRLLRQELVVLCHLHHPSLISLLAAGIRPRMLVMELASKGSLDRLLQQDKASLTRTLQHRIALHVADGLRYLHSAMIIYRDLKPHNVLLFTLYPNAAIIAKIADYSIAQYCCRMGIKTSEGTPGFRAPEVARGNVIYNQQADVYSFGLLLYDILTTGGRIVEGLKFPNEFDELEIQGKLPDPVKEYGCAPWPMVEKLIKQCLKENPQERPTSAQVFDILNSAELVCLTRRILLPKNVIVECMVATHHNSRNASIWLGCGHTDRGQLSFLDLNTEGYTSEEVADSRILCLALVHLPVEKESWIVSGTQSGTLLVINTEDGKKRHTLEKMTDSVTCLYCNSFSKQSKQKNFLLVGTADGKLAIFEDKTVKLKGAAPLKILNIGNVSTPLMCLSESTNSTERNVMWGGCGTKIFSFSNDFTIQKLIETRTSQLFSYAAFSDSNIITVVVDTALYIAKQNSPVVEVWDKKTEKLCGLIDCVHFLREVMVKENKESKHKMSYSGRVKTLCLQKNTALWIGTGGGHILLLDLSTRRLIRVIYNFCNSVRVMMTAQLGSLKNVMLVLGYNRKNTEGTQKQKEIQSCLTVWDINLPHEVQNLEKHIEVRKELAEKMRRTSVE

[7] = molecular target: T2, NUAK2 (Homo sapiens, UniProt Q9H093)
T2 sequence (Q9H093 1-628): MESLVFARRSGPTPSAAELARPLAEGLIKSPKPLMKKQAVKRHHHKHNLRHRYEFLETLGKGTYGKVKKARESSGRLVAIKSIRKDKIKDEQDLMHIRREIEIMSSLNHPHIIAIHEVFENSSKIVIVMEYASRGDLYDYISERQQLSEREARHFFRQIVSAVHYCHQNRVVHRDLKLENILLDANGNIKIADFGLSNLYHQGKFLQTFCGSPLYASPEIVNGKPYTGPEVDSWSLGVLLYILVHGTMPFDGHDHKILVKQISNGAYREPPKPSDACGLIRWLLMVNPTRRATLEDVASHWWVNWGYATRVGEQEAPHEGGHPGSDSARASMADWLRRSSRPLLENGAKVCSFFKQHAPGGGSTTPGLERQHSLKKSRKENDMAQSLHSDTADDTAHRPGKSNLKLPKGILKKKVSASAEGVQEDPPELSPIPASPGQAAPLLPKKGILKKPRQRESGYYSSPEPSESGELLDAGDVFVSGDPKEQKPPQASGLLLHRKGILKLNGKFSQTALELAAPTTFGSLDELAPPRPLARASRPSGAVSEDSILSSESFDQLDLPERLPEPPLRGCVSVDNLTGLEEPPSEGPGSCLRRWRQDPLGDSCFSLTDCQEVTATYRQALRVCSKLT

[8] = molecular target: T3, STK3 (MST2) (Homo sapiens, UniProt Q13188)
T3 sequence (Q13188 1-491): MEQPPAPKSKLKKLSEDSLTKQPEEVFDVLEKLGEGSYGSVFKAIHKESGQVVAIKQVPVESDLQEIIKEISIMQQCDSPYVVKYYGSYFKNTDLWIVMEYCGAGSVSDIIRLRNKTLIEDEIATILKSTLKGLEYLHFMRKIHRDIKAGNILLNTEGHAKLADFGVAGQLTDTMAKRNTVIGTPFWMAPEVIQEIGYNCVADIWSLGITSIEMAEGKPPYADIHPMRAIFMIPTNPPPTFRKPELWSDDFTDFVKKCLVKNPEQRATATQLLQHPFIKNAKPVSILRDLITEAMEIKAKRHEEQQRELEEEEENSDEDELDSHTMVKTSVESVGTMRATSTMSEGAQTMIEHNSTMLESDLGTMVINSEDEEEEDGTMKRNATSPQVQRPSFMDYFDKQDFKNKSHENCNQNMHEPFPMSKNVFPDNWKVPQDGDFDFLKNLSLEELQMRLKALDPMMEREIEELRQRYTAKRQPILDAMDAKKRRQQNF

Sequence of TYK2 (P29597 whole entry): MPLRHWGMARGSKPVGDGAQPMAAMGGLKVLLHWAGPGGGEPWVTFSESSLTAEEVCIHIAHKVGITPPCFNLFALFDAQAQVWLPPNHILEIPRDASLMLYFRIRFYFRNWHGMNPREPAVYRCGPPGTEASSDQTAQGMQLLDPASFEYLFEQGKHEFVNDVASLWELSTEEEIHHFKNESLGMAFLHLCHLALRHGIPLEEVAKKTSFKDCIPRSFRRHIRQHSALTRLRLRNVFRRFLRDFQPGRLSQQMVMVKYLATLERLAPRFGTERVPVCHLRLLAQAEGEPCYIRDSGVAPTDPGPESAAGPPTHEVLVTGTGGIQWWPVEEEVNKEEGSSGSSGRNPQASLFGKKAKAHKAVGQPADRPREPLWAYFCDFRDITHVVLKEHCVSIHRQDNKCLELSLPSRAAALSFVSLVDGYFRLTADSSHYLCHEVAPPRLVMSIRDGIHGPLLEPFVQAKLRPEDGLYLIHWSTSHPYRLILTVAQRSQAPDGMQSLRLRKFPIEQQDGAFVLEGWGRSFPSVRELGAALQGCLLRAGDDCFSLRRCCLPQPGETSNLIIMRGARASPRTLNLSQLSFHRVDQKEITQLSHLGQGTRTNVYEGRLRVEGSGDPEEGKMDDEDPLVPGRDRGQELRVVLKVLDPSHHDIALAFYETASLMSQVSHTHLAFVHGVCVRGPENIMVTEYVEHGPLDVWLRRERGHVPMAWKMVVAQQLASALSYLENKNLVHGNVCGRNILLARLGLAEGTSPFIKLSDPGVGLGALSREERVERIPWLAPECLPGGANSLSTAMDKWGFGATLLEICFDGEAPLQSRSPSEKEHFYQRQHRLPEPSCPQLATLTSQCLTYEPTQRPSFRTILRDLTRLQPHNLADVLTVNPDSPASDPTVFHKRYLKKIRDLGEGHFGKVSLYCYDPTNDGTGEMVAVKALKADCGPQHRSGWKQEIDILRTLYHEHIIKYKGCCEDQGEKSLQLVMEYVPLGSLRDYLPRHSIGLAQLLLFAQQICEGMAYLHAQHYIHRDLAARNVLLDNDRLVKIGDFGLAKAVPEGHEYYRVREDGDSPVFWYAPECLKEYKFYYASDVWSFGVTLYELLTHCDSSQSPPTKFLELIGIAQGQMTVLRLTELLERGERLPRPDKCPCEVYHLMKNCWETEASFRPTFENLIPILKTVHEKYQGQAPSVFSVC
Sequence of CSNK2A1 (P68400 whole entry): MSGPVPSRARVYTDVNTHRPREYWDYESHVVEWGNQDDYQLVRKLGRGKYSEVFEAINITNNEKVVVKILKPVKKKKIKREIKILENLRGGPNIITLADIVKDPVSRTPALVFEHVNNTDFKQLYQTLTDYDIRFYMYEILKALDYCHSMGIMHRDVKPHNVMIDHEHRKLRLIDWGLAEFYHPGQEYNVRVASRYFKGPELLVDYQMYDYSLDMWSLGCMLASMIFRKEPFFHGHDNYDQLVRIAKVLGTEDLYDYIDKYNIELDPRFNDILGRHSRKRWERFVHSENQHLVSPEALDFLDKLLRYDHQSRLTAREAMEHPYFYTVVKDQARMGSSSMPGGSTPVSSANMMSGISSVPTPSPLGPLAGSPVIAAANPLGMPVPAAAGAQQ
Sequence of LRRK2 (Q5S007 whole entry): as the sequence (Q5S007 whole entry G2019S) above, with S2019G counted along it
Sequence of BMPR1B (O00238 whole entry): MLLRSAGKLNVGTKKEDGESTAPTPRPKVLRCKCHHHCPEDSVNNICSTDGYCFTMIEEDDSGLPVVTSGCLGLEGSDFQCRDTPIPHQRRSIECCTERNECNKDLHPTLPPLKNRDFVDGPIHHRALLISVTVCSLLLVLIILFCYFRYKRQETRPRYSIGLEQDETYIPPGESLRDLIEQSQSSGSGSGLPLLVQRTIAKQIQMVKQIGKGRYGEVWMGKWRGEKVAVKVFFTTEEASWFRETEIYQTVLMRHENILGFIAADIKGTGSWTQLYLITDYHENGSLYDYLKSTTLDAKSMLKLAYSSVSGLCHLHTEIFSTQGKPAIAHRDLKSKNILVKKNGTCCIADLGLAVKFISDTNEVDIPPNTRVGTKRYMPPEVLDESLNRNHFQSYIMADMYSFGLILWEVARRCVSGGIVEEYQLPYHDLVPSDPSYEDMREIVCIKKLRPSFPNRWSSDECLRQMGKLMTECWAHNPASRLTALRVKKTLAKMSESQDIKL

Compound A1 PoC [1]: 0% | Compound A1 PoC [2]: 2.1% | Compound A1 PoC [3]: 1.8% | Compound A1 PoC [4]: 6.9% | Compound A1 PoC [5]: 0% | Compound A1 PoC [6]: 7.5% | Compound A1 PoC [7]: 1.2% | Compound A1 PoC [8]: 0%
Compound: C[C@H](NC(=O)c1c[nH]c2ncc(C3CC3)nc12)C(C)(C)C [A1, UNC-BE4-017]
